Columns and labels:
[1] = tested on: PD1-ss+10aa/Gaussia Luciferase; assay: Dox-Induced PD1-ss-Gluc Assay; format: cell-based; conditions: 24 hr Dox induction; 293FRT/TO cells; read-out: 24 hr Dox Inducible PD1ssGluc 293FRT/TO: Mean IC50
Procedure, shortened: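 The cell line was made by transfecting Flp-In 293 T-REx cells with a PD1 signal sequence+10aa–Gaussia luciferase fusion under T-REx control and selecting with hygromycin and blasticidin. Cells were seeded, and next day compound plus doxycycline was added at 37 °C, 5% CO2.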

[2] = tested on: TNFα-FL/Gaussia Luciferase; assay: Dox Induced TNFα-FL-Gluc Assay; format: cell-based; conditions: for IC50: 24 hr Dox induction, 293FRT/TO cells, read-out: 24 hr Dox Inducible TNFaFLGluc 293FRT/TO: Mean IC50; for 24 hr Dox Inducible TNFaFLGluc 293FRT/TO: TNF/PD1: ratio of TNFaFLGluc IC50 to PD1ssGluc IC50
Procedure, shortened: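 Compound was added with doxycycline to cells plated a day earlier, incubating at 37° C under 5% CO2. The reporter line is 293 T-REx expressing a TNFα (1-233)–Gaussia luciferase fusion under tetracycline-regulated control.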

[3] = tested on: HER3-ss+4aa/Gaussia Luciferase; assay: Dox-Induced Her3-ss-Gluc Assay; format: cell-based; conditions: 24 hr Dox induction; 293FRT/TO cells; read-out: 24 hr Dox Inducible Her3(ss + 4)Gluc 293FRT/TO: Mean IC50
Procedure, shortened: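 Compounds were diluted in DMSO/media containing doxycycline. They were added to Flp-In 293 T-REx cells plated the previous day, then incubated at 37 °C under 5% CO2. These cells stably express, under T-REx control, Gaussia luciferase fused to the HER3 signal sequence plus 4 amino acids.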

[4] = tested on: IL-2-FL/Gaussia Luciferase; assay: Dox Induced IL2-FL-Gluc Assay; format: cell-based; conditions: for IC50: 24 hr Dox induction, 293FRT/TO cells, read-out: 24 hr Dox Inducible IL2FLGluc 293FRT/TO: Mean IC50; for 24 hr Dox Inducible IL2FLGluc 293FRT/TO: IL2/PD1: ratio of IL2FLGluc IC50 to PD1ssGluc IC50
Procedure, shortened: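 Compounds in DMSO/medium with doxycycline were applied to a 293 T-REx stable line expressing an IL-2 (aa 1-153)–Gaussia luciferase fusion under tetracycline-regulated control, cells seeded one day earlier; incubation at 37 °C, 5% CO2. Structures drawn without stereochemistry were tested as stereoisomer mixtures.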

[5] = tested on: multiple myeloma cell line NCI-H929; assay: H929 Cell Viability Assay; format: cell-based, human; conditions: Homo sapiens, NCI-H929, 48 h, NCI-H929 cells, Celltiter-Glo
Procedure, shortened: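 Luminescent CellTiter-Glo read-out of viability after a 48 h exposure (37° C, 5% CO2) of NCI-H929 myeloma cells to compound dilutions in RPMI 1640 plus 10% FBS. Data for structures drawn without stereochemistry refer to stereoisomer mixtures.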

[6] = tested on: multiple myeloma cell line U266B1; assay: U266 Cell Viability Assay; format: cell-based, human; conditions: Homo sapiens, U-266, 48 h, U266B1 cells, Celltiter-Glo
Procedure, shortened: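 CellTiter-Glo luminescence was read after a 48 h compound exposure (37 °C, 5% CO2) of human U266B1 myeloma cells grown in 10% FBS-supplemented RPMI 1640. Data for structures shown without defined stereochemistry refer to stereoisomer mixtures.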

[7] = Liver Microsome Stability Assay (rat); conditions: rat liver microsomes, with NADPH, 1.0 uM compound
Protocol: (§1) Stability of a compound was assessed in the presence of liver microsomes from various sources—mouse, rat, monkey and human liver microsomes. 1.0 uM compound, 0.4% DMSO in 0.1 M Potassium Phosphate with 1.0 mg/mL liver microsomes, were incubated at 37° C. with or without 1 mM NADPH. The samples were quenched at 0, and 30 minutes.

[8] = Liver Microsome Stability Assay (mouse); conditions: mouse liver microsomes, with NADPH, 1.0 uM compound
Protocol: as §1

[9] = Liver Microsome Stability Assay (human); conditions: human liver microsomes, with NADPH, 1.0 uM compound
Protocol: as §1

[10] = Liver Microsome Stability Assay (monkey); conditions: monkey liver microsomes, with NADPH, 1.0 uM compound
Protocol: as §1

Compound | IC50 [1] | IC50 [2] | 24 hr Dox Inducible TNFaFLGluc 293FRT/TO: TNF/PD1 [2] | IC50 [3] | IC50 [4] | 24 hr Dox Inducible IL2FLGluc 293FRT/TO: IL2/PD1 [4] | EC50 [5] | EC50 [6] | Liver Microsome Stability (Multiple Species): Rat - % Remaining after 30 min w/NADPH [7] | Liver Microsome Stability (Multiple Species): Mouse - % Remaining after 30 min w/NADPH [8] | Liver Microsome Stability (Multiple Species): Human - % Remaining after 30 min w/NADPH [9] | Liver Microsome Stability (Multiple Species): Monkey - % Remaining after 30 min w/NADPH [10]
COC(=O)Nc1ccc(N2CCC[C@@H]2c2csc(NC(=O)c3cccn3Cc3ccnc(F)c3)n2)nc1 [Compound A175, methyl (R)-(6-(2-(2-(1-((2-fluoropyridin-4-yl)methyl)-1H-pyrrole-2-carboxamido)thiazol-4-yl)pyrrolidin-1-yl)pyridin-3-yl)carbamate] | 3.02 nM | 80.7 nM | 26.7 | 7.95 nM | 12.9 nM | 4.3 | 188 nM | > 25000 nM | 0.32% | 1.57% | 1.38% | 0.22%
CC(=O)N1CC(CCc2ccc(N3CCC[C@@H]3c3csc(NC(=O)c4cccn4Cc4ccnc(F)c4)n3)cc2)C1 [Compound A176] | 15 nM | 487 nM | 32.4 | 31 nM | 41.8 nM | 2.8 | 438 nM | > 25000 nM | 18.6% | 2.72% | 1.34% | 0.16%
O=C(Nc1ccc(N2CCC[C@@H]2c2csc(NC(=O)c3cccn3Cc3ccnc(F)c3)n2)cc1)OC1COC1 [Compound A177, oxetan-3-yl (R)-(4-(2-(2-(1-((2-fluoropyridin-4-yl)methyl)-1H-pyrrole-2-carboxamido)thiazol-4-yl)pyrrolidin-1-yl)phenyl)carbamate] | 0.93 nM | 25.8 nM | 27.6 | 2.39 nM | 2.79 nM | 3 | 16.2 nM | > 25000 nM | 57.1% | 29.1% | 39.3% | 9.52%
O=C(Nc1ccc(N2CCC[C@@H]2c2csc(NC(=O)c3cccn3Cc3ccnc(F)c3)n2)cc1)OC1CNC1 [Compound A178, azetidin-3-yl (R)-(4-(2-(2-(1-((2-fluoropyridin-4-yl)methyl)-1H-pyrrole-2-carboxamido)thiazol-4-yl)pyrrolidin-1-yl)phenyl)carbamate] | 23.9 nM | 931 nM | 39 | 76.3 nM | 107 nM | 4.5 | 525 nM | 7400 nM | 51.4% | 70.6% | 72.8% | 70.8%
CC(=O)N1CC(OC(=O)Nc2ccc(N3CCC[C@@H]3c3csc(NC(=O)c4cccn4Cc4ccnc(F)c4)n3)cc2)C1 [Compound A179, 1-acetylazetidin-3-yl (R)-(4-(2-(2-(1-((2-fluoropyridin-4-yl)methyl)-1H-pyrrole-2-carboxamido)thiazol-4-yl)pyrrolidin-1-yl)phenyl)carbamate] | 2.63 nM | 138 nM | 52.3 | 6.96 nM | 9.01 nM | 3.4 | 70.5 nM | > 25000 nM | 69.3% | 34.8% | 21.3% | 15.4%
COC(=O)Nc1ccc(N2CCC[C@@H]2c2csc(NC(=O)c3cc(C)cn3Cc3ccnc(F)c3)n2)nc1 [Compound A180, methyl (R)-(6-(2-(2-(1-((2-fluoropyridin-4-yl)methyl)-4-methyl-1H-pyrrole-2-carboxamido)thiazol-4-yl)pyrrolidin-1-yl)pyridin-3-yl)carbamate] | 4.95 nM | 49.8 nM | 440.37 | 3.7 nM | 14.3 nM | 52.35 | 715 nM | > 25000 nM | 3.14% | 14.4% | 8.99% | 7.35%
O=C(Nc1nc(/C=C/c2cocn2)cs1)c1cccn1Cc1ccncc1 [Compound B1, (E)-N-(4-(2-(oxazol-4-yl)vinyl)thiazol-2-yl)-1-(pyridin-4-ylmethyl)-1H-pyrrole-2-carboxamide] | 129 nM | > 25000 nM | >194 | 13000 nM | 19900 nM | 160 | > 25000 nM | > 25000 nM | 4.96% | 5.93% | 1.81% | 1.07%
Cc1nc(/C=C/c2csc(NC(=O)c3cccn3Cc3ccncc3)n2)co1 [Compound B2, (E)-N-(4-(2-(2-methyloxazol-4-yl)vinyl)thiazol-2-yl)-1-(pyridin-4-ylmethyl)-1H-pyrrole-2-carboxamide] | 220 nM | > 25000 nM | >114 | > 25000 nM | > 25000 nM | 110 | > 25000 nM | > 25000 nM | 1.8% | 7.06% | 0.69% | 0.9%
